Measured values reported in patent publication US8609151B2, “Treatment of erectile dysfunction and libido enhancement” (CSIR, priority 2006, dated 2013).
In brackets after ≈: the same amount, converted by molar mass. Entries after “also recorded” stand apart in the source; their conditions may differ. Read-outs that look alike come from different tables or passages of the source.

What was measured:
[1] = biological target: T1, Phosphodiesterase 5 enzyme, partially purified from human platelets (Homo sapiens, UniProt O76074); assay: in vitro inhibition of the phosphodiesterase 5 enzyme (MDS Pharma); assay type: biochemical
T1 construct: Phosphodiesterase 5 enzyme, partially purified from human platelets, was used; tissue MDS Pharma Laboratory in Taiwan (assay performed there); host or cells: human platelets
Experimental: Inhibition of the phosphodiesterase 5 enzyme limits the hydrolysis of cyclic Guanisine MonoPhosphate (cGMP) to acyclic Guanisine MonoPhosphate (5′GMP) and thereby increases the intracellular concentrations of cGMP which results in the relaxation of the corpus cavernosum smooth muscle. When this muscle is relaxed blood flows and fills the arteries causing the penis to erect.
The assay of the inhibition of the phosphodiesterase 5 enzyme was carried out by the MDS Pharma Laboratory in Taiwan. Phosphodiesterase 5 enzyme, partially purified from human platelets, was used. Test compounds and/or vehicles were incubated with 3.5 μg enzyme and 1 μM cGMP containing 0.01 μM [^3H]cGMP in Tris buffer at pH 7.5 for 20 minutes at 30° C. The reaction was terminated by boiling for 2 minutes and the resulting GMP was converted to guanosine by addition of 10 mg/ml snake venom nucleotidase and further incubation at 30° C. for 10 minutes. Unhydrolyzed cGMP was bound to AG1-X2 resin, and remaining [^3H]guanosine in the aqueous phase was quantitated by scintillation counting. […] Since enzyme activity could change from lot to lot, the concentration used was adjusted if necessary.

[2] = tested on: Chinese hamster ovarian cells (CHO); assay: in vitro cytotoxicity, MTT assay; conditions: for IC50: Cricetulus griseus; for cytotoxicity against Chinese hamster ovarian cells: at the test concentrations
Experimental: In vitro cytotoxicity against mammalian cell line was assayed against Chinese hamster ovarian cells by the Assay Laboratory of the Department of Medicine, Division of Pharmacology, University of Cape Town, South Africa.
All samples were tested in triplicate on a single occasion. The MTT-assay was used as a calorimetric assay for cellular growth and survival, and compares well with other available assays (Mosman, Journal of Immunological Methods 65, 55-63 (1983) and Rubinstein et al., Journal of the National Cancer Institute 82, 1113-8 (1990)). The tetrazolium salt MTT was used to measure all growth and chemosensitivity.
Aqueous samples were dissolved in water and organic samples were dissolved in a methanol:water mixture (1:9) by volume. The initial concentration of stock solutions was 2 mg/ml for all samples. Samples were stored at −20° C. until use. […] Emetine was used as the positive control in all experiments. The initial concentration of emetine was 100 μg/ml, which was serially diluted in complete medium with 10-fold dilutions to give 6 concentrations, the lowest being 0.001 μg/ml. The same dilution technique was applied to all other samples with an initial concentration of 100 μg/ml to give 5 concentrations, with the lowest concentration being 0.01 μg/ml.
The 50% inhibitory concentration (IC50) values for these samples were obtained from dose-response curves, using a non-linear dose-response curve fitting analyses via GraphPad Prism v.2.01 software.

rabbit corpus cavernosum = rabbit corpus cavernosum relaxation/contraction, phenylephrine-contracted strip (MDS Pharma); assay type: cell-based; conditions: for Smooth Muscle relaxation (%) at 30 μM: relative to 0.3 μM sodium nitroprusside response, significant at ≧50%; for rabbit corpus cavernosum smooth muscle relaxation: isolated compounds at test concentration
Experimental: Rabbit corpus cavernosum relaxation/contraction was measured by the MDS Pharma Laboratory. Corpus cavernosum obtained from New Zealand-derived albino male rabbits weighing 2.5-3 kg and sacrificed by CO2 overexposure was used. A strip from the basal area of the corpus cavernosal was removed and placed under 2 g tension in a 10 ml bath containing Krebs solution at pH 7.4 at 32° C. and sub-maximal isometrically recorded tonic contraction was induced by phenylephrine (3 μM).

[3] = tested on: rabbit corpus cavernosal smooth muscle; assay: relaxation of CaCl2 pre-contracted rabbit corpus cavernosal smooth muscle strips (University of Pretoria); assay type: cell-based
Experimental: Strips (12 mm long and 1-2 mm thick) of rabbit corpus cavernosal smooth muscle were dissected and mounted in an organ-bath chamber containing Krebs-PSS solution with the following composition: […] One end of the muscle was tied to the inside bottom of the perfusion bath and the other end to a thin wire connected to a Harvard isotonic force transducer for isotonic tension measurements. Changes in isotonic tension were recorded on a computerized calibrating program. […] This was followed by perfusion with 2 ml of high CaCl2 in Krebs-PSS (17.8 mg/ml) for muscle contraction. Base-line tension was set at the point of maximal contraction following the addition of CaCl2 into the experimental bath. The extracts to be analyzed were added after a stable contraction base-line. The same procedure was repeated for the positive control, Sildenafil. The contraction/relaxation was reported relative to Sildenafil tested at 78 ng/ml.

[4] = read-out: Phosphodiesterase 5 enzyme inhibition (%) at 10 μM, 10 μM, significant at ≧50%
[5] = read-out: Chinese hamster ovarian cell test IC50, MTT assay, triplicate, values ≦1.0 considered cytotoxic

SMILES	inhibition at 10 µM [1, 4] [%]	IC50 [2, 5] [µg/mL]	cytotoxicity against Chinese hamster ovarian cells [2]	Smooth Muscle relaxation (%) at 30 μM (rabbit corpus cavernosum) [%]	rabbit corpus cavernosum smooth muscle relaxation (rabbit corpus cavernosum)	also measured
COc1ccc(-c2c3c(c(O)c4cc5c(cc24)OCO5)COC3=O)cc1OC [Compound 5, 9-(3′,4′-dimethoxyphenyl)-4-hydroxy-6,7-methylenedioxynaphtho[2,3-c]furan-1(3H)-one]	29	28.5 (≈ 74.9 µM)	non-cytotoxic	75	observed	
CC[C@H]1CN2CCc3cc(OC)c(OC)cc3[C@@H]2C[C@@H]1C[C@H]1NCCc2cc(OC)c(OC)cc21 [Emetine, reference compound]		0.04 (≈ 0.0832 µM)				
COc1cc2c(-c3ccc4c(c3)OCO4)c3c(c(OC)c2c(OC)c1OC)COC3=O [Compound 3, 9-(1′,3′-benzodioxol-5′-yl)-4,5,6,7-tetramethoxynaphtho[2,3-c]furan-1(3H)-one]				62		inhibition at 10 µM ([1]; read-out: Phosphodiesterase 5 enzyme inhibition (%) at 10 μM): 11%; IC50 ([2]; read-out: Chinese hamster ovarian cell test IC50): 9 µg/mL (≈ 21.2 µM)
CCCc1nn(C)c2c(=O)[nH]c(-c3cc(S(=O)(=O)N4CCN(C)CC4)ccc3OCC)nc12 [Viagra]						relaxation ([3]; at […] 10^−2 μg/ml, footnote of Table 14, same figure as the Table 13 footnote): 100%; smooth muscle relaxation ([3]; at […] 10^−5 mg/ml, positive control): Viagra showed 100% smooth muscle relaxation at 1.8 × 10^−5 mg/ml
COc1ccc(CC2COC(=O)/C2=C\c2ccc3c(c2)OCO3)cc1OC (stereo not drawn) [Compound 6, 3-(1′,3′-benzodioxol-5′-ylmethylene)-4-(3″,4″-dimethoxybenzyl)dihydrofuran-2(5H)-one]	35	> 100	non-cytotoxic; also recorded: least toxic	71		
COc1ccc(-c2c3c(c(OC)c4cc5c(cc24)OCO5)C(=O)OC3)cc1OC [Compound 7, 4-(3′,4′-dimethoxyphenyl)-9-methoxy-6,7-methylenedioxynaphtho[2,3-c]furan-1(3H)-one]			non-cytotoxic; also recorded: least toxic	57	observed	Phosphodiesterase 5 enzyme inhibition (%) at 10 μM ([1]; 10 μM, significant at ≧50%): 53%; phosphodiesterase 5 enzyme inhibition ([1]; isolated compounds at test concentration): Significant inhibition; Chinese hamster ovarian cell test IC50 ([2]; MTT assay, triplicate, values ≦1.0 considered cytotoxic): >100 µg/mL
